{"source": "patent US11795404B2", "about": "“Composition for removing sulfur-containing compounds” (KURARAY CO., LTD., priority 2018, dated 2023)", "key": {"[1]": {"assay": "Sulfur-containing compound removal reaction, BuSH in liquid hydrocarbon (GC-SCD)", "details": "BuSH 50 μL (1000 ppm by volume) in kerosene 50 mL; aldehyde 250 μL; room temperature; reaction time 1 day", "description": "In a 100 mL three-neck flask, 50 mL of kerosene was put and 50 μL (1000 ppm by volume, 0.46 mmol) of BuSH was added thereto to obtain a kerosene solution containing a sulfur-containing compound.\nNext, 250 μL (2.59 mmol) of SAL and 250 μL (1.71 mmol) of DBU were added to the kerosene solution, and the solution was stirred at room temperature (20° C.±5° C., the same applies hereinafter) and at 800 rpm to perform a sulfur-containing compound removal reaction.\nAfter 1-day reaction, the mercaptan concentration of the liquid phase in the three-neck flask was measured.\nThe mercaptan concentration of the liquid phase was measured using a calibration curve method by gas chromatography. The gas chromatography was performed under the following conditions.\nAnalyzer: GC-SCD (manufactured by Agilent Technologies Japan, Ltd.)\nDetector: sulfur chemiluminescence detector (SCD)\nColumn: DB-sulfur SCD (length: 60 m, thickness: 4.2 μm, inner diameter: 0.32 mm) (manufactured by Agilent Technologies Japan, Ltd.)\nAnalytical conditions: inject. temp. 250° C., detect. temp. 250° C.\nTemperature rise condition: 35° C. (kept for 3 minutes) (raised at 10° C./min)→250° C. (kept for 15 minutes)\nInternal Standard Substance: diphenyl sulfide\nA sulfur-containing compound removal reaction was performed in the same manner as in Example 3 except that crude oil was used in place of kerosene."}, "[2]": {"details": "conjugate acid in water at 25° C.; cited from earlier work"}}, "data": [{"smiles": "C=CC=O", "note": "[Comparative Example 4, Acrolein]", "values": [{"measurement": "Removal rate", "setting": "[1]", "value": 15, "unit": "%"}]}, {"smiles": "C1CCC2=NCCCN2CC1", "note": "[DBU, 1,8-Diazabicyclo[5.4.0]-7-undecene]", "values": [{"measurement": "pKa", "setting": "[2]", "value": 11.5}]}, {"smiles": "CN(C)CCN(C)CCN(C)C", "note": "[PMDETA, N,N,N′,N″,N″-Pentamethydiethylenetriamine]", "values": [{"measurement": "pKa", "setting": "[2]", "value": 9.1}]}, {"smiles": "CC(C)=CC=O", "note": "[Comparative Example 1, Senecioaldehyde]", "values": [{"measurement": "Removal rate", "setting": "[1]", "value": "<10", "unit": "%"}]}]}
